Laboratory results taken from ChEMBL document CHEMBL3044901, “Synthesis and insecticidal activity of N-oxydihydropyrroles: 4-hydroxy-3-mesityl-5,5-dimethyl derivatives with various substituents at the 1-position” (Biosci Biotechnol Biochem, 2002).

Columns and labels:
Myzus persicae [1] = experiment: Insecticidal activity against Myzus persicae (green peach aphid) infested Brassica campestris stems followed by cut stem exposure to test compound assessed as insect mortality at 0.1 ppm measured 5 days post compound treatment by systemic exposure test; assay type: functional; conditions: 120 h
Nilaparvata lugens [2] = experiment: Insecticidal activity against Nilaparvata lugens (brown planthopper) third-instar larvae reared on rice seedlings assessed as insect mortality at 10 ppm measured 5 days post compound treatment by systemic exposure test; assay type: functional; conditions: 120 h
Myzus persicae [3] = experiment: Insecticidal activity against Myzus persicae (green peach aphid) infested Brassica campestris stems followed by leaf exposure to test compound spraying assessed as insect mortality at 1 ppm measured 5 days post compound treatment by contact exposure test; assay type: functional; conditions: 120 h
Oryza sativa = experiment: Phytotoxicity against Oryza sativa exposed to compound spraying at […] measured 7 days post compound treatment by post-emergence glasshouse test; assay type: organism-based; conditions: in vivo, other, 168 h
Nilaparvata lugens [4] = experiment: Insecticidal activity against Nilaparvata lugens (brown planthopper) third-instar larvae contacted with rice stems pre-exposed to compound assessed as insect mortality at 1 ppm measured 5 days post insect release by contact exposure test; assay type: functional; conditions: 120 h
Nilaparvata lugens [5] = experiment: Insecticidal activity against Nilaparvata lugens (brown planthopper) third-instar larvae contacted with rice stems pre-exposed to compound assessed as insect mortality at 10 ppm measured 5 days post insect release by contact exposure test; assay type: functional; conditions: 120 h
Myzus persicae [6] = experiment: Insecticidal activity against Myzus persicae (green peach aphid) infested Brassica campestris stems followed by leaf exposure to test compound spraying assessed as insect mortality at 10 ppm measured 5 days post compound treatment by contact exposure test; assay type: functional; conditions: 120 h
Cucumis sativus = experiment: Phytotoxicity against Cucumis sativus (cucumber) exposed to compound spraying at […] measured 7 days post compound treatment by post-emergence glasshouse test; assay type: organism-based; conditions: in vivo, other, 168 h
Nilaparvata lugens [7] = experiment: Insecticidal activity against Nilaparvata lugens (brown planthopper) third-instar larvae reared on rice seedlings assessed as insect mortality at 1 ppm measured 5 days post compound treatment by systemic exposure test; assay type: functional; conditions: 120 h
Myzus persicae [8] = experiment: Insecticidal activity against Myzus persicae (green peach aphid) infested Brassica campestris stems followed by cut stem exposure to test compound assessed as insect mortality at 1 ppm measured 5 days post compound treatment by systemic exposure test; assay type: functional; conditions: 120 h

Row | Compound | mortality at 0.1 ppm (Myzus persicae [1]) | mortality at 10 ppm (Nilaparvata lugens [2]) | mortality at 1 ppm (Myzus persicae [3]) | Phytotoxicity (Oryza sativa) | mortality at 1 ppm (Nilaparvata lugens [4]) | mortality at 10 ppm (Nilaparvata lugens [5]) | mortality at 10 ppm (Myzus persicae [6]) | Phytotoxicity (Cucumis sativus) | mortality at 1 ppm (Nilaparvata lugens [7]) | mortality at 1 ppm (Myzus persicae [8])
1 | COCCON1C(=O)C(c2c(C)cc(C)cc2C)=C(O)C1(C)C | 100% | 90% | 0% | 90% | 30% | 90% | 90% | 60% | 90% | 100%
2 | COCCOCON1C(=O)C(c2c(C)cc(C)cc2C)=C(O)C1(C)C | 100% | 100% | 0% | 100% | 30% | 60% | 90% | 100% | 30% | 100%
3 | CSCON1C(=O)C(c2c(C)cc(C)cc2C)=C(O)C1(C)C | 30% | 100% | 0% | 90% | 30% | 30% | 0% | 0% | 30% | 90%
4 | Cc1cc(C)c(C2=C(OC(=O)CC(C)(C)C)C(C)(C)N(O)C2=O)c(C)c1 | 0% | 90% | 0% | 30% | 90% | 100% | 0% | 0% | 60% | 0%
5 | CON1C(=O)C(c2c(C)cc(C)cc2C)=C(OC(=O)CC(C)(C)C)C1(C)C | 0% | 90% | 0% | 30% | 90% | 90% | 30% | 60% | 30% | 0%
6 | Cc1cc(C)c(C2=C(OC(=O)CC(C)(C)C)C(C)(C)N(OCC#N)C2=O)c(C)c1 | 0% | 100% | 0% | 0% | 90% | 100% | 100% | 60% | 60% | 100%
7 | COCON1C(=O)C(c2c(C)cc(C)cc2C)=C(OC(=O)CC(C)(C)C)C1(C)C | 100% |  | 100% | 100% | 30% | 100% | 100% | 90% | 30% | 100%
8 | CCOCON1C(=O)C(c2c(C)cc(C)cc2C)=C(OC(=O)CC(C)(C)C)C1(C)C | 60% | 100% | 100% | 0% | 100% | 100% | 100% | 60% | 0% | 100%
9 | CC(=O)ON1C(=O)C(c2c(C)cc(C)cc2C)=C(OC(=O)CC(C)(C)C)C1(C)C | 0% |  | 0% | 60% | 60% |  | 0% | 0% | 30% | 0%
10 | Cc1cc(C)c(C2=C(OC(=O)CC(C)(C)C)C(C)(C)N(OC(=O)C(C)(C)C)C2=O)c(C)c1 | 0% |  | 0% | 0% | 0% |  | 0% | 0% | 30% | 0%
11 | Cc1cc(C)c(C2=C(OC(=O)CC(C)(C)C)C(C)(C)N(OC(=O)CC(C)(C)C)C2=O)c(C)c1 | 0% |  | 0% | 0% | 0% |  | 60% | 0% | 0% | 0%
12 | COC(=O)ON1C(=O)C(c2c(C)cc(C)cc2C)=C(OC(=O)CC(C)(C)C)C1(C)C | 0% |  | 0% | 60% | 60% |  | 0% | 0% | 30% | 0%
13 | Cc1cc(C)c(C2=C(OC(=O)CC(C)(C)C)C(C)(C)N(OS(C)(=O)=O)C2=O)c(C)c1 | 0% |  | 0% | 0% | 0% |  | 0% | 0% | 0% | 0%
14 | Cc1cc(C)c(C2=C(OC(=O)CC(C)(C)C)C(C)(C)N(OC(=O)N(C)C)C2=O)c(C)c1 | 0% |  | 0% | 0% | 0% |  | 0% | 0% | 30% | 0%
15 | CON1C(=O)C(c2c(C)cc(C)cc2C)=C(O)C1(C)C | 0% | 100% | 0% | 100% | 30% | 90% | 60% | 60% | 100% | 100%
16 | CCON1C(=O)C(c2c(C)cc(C)cc2C)=C(O)C1(C)C | 60% | 90% | 0% | 100% | 60% | 100% | 0% | 0% | 60% | 100%
17 | CCCON1C(=O)C(c2c(C)cc(C)cc2C)=C(O)C1(C)C | 90% | 100% | 0% | 100% | 30% | 100% | 30% | 0% | 60% | 90%
18 | Cc1cc(C)c(C2=C(O)C(C)(C)N(OC(C)C)C2=O)c(C)c1 | 0% | 90% | 0% | 100% | 30% | 60% | 0% | 0% | 30% | 60%
19 | C=CCON1C(=O)C(c2c(C)cc(C)cc2C)=C(O)C1(C)C | 60% | 100% | 0% | 100% | 60% | 90% | 100% | 0% | 60% | 100%
20 | C#CCON1C(=O)C(c2c(C)cc(C)cc2C)=C(O)C1(C)C | 60% | 90% | 0% | 100% | 60% | 100% | 90% | 0% | 90% | 100%
21 | Cc1cc(C)c(C2=C(O)C(C)(C)N(O)C2=O)c(C)c1 | 0% |  | 0% | 90% | 0% | 0% | 60% | 60% | 0% | 100%
22 | Cc1cc(C)c(C2=C(O)C(C)(C)N(OCC3CCCCC3)C2=O)c(C)c1 | 0% | 60% | 0% | 60% | 30% | 90% | 0% | 0% | 60% | 60%
23 | Cc1cc(C)c(C2=C(O)C(C)(C)N(OCc3ccccc3)C2=O)c(C)c1 | 0% | 100% | 0% | 30% | 30% | 0% | 0% | 0% | 30% | 0%
24 | COCON1C(=O)C(c2c(C)cc(C)cc2C)=C(O)C1(C)C | 100% | 100% | 0% | 100% | 60% | 100% | 100% | 90% | 60% | 100%
